According to patent US20190002452A1 (GUANGZHOU HENOVCOM BIOSCIENCE CO., LTD, priority 2016, published 2019):

molecular target: T1, human farnesol receptor protein hFXR (Homo sapiens, UniProt Q96RI1); experiment: AlphaScreen assay of FXR agonist activity in vitro: effect on binding between human farnesol receptor protein and its coactivator (SRC1-2); format: biochemical; settings: hFXR 100 nM, peptide bSRC1-2 50 nM, 2 hr incubation at room temperature
T1 construct: hexahistidine (His6)
T1 sequence (Q96RI1 1-486): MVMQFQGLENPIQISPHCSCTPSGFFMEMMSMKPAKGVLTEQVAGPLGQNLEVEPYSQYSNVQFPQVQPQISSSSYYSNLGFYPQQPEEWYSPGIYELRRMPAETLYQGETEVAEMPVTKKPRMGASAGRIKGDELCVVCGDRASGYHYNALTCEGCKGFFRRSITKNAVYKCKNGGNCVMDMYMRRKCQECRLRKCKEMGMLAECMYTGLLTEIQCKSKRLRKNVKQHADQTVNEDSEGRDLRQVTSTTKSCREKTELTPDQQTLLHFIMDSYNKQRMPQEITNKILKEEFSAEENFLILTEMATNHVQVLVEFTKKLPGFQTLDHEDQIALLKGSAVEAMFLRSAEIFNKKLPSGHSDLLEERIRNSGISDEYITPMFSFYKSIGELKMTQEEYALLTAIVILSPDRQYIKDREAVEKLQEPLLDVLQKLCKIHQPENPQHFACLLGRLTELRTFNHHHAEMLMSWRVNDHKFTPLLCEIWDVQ
Description: FXR agonist activity in vitro for the chemicals prepared in the above examples is measured.
AlphaScreen-based assays are performed with a hexahistidine detection kit manufactured by Perkins-Elmer, for measuring the effect of chemical compounds on the binding between human farnesol receptor protein and its coactivator (SRC1-2), the method is shown as follows:
1) Preparing a mixture comprising human farnesol receptor protein hFXR (100 nM, 15 μL/well), peptide bSRC1-2 (50 nM, 15 μL/well), 10× AlphaScreen buffer solution (15 μL/well and DI water (60 μL/well), and then transferring 105 μL/well of the mixture to a 96-well plate; 2) Diluting the chemicals prepared in the above examples by twice gradient 12×, with 15 μL/well; 3) Adding donor beads and acceptor beads, 30 μL/well in total; (attention: the beads are light-sensitive) 4) Incubating in dark at room temperature for 2 hr; 5) Transferring 40 μL/well of the mixture to a 384-well plate with 3 replicates, and then centrifuging at 1000 rpm for 1 min, to make liquid mixed well underneath the wells. (attention: photopathic operation); 6) In a dark room, reading the plate (by Homogeneous luminescent immunoassay system) to obtain EC50 with a GraphPad Prism5 software.

COc1cc(C(=O)O)cc2sc(N3CC4(CC(OCc5c(-c6c(Cl)cccc6Cl)noc5C5CC5)C4)C[C@H]3C)nc12 (some centres unmarked) [Example 18] and O=C(O)c1ccc2nc(N3CC4(CC(OCc5c(-c6c(Cl)cccc6Cl)noc5C5CC5)C4)C[C@H]3CF)sc2c1 (stereo partly drawn) [Example 16, (S)-2-(2-((5-5-cyclopropyl-3-(2,6-dichlorophenyl)isoxazol-4-yl)methoxy)-7-(fluromethyl)-6-azaspiro[3.4]octan-6-yl) benzo[d]thiazole-6-carboxylic Acid] fall in the same range of EC50: 100 to 1000 nM for the first, 100 to 1000 nM for the second.

Compared with O=C(O)c1ccc(N2CCC3(CC(OCc4c(-c5c(Cl)cccc5Cl)noc4C4CC4)C3)C2)c(F)c1 (centres unmarked) [Example 37, 4-(2-((5-cyclopropyl-3-(2,6-dichlorophenyl)isoxazol-4-yl)methoxy)-6-azaspiro[3.4]octan-6-yl)-3-fluorobenzoic Acid], O=C(O)c1ccc2nc(N3CCC4(CC(OCc5c(-c6c(Cl)cccc6Cl)noc5C5CC5)C4)C3)sc2c1 (centres unmarked) [Example 8, 2-(2-((5-cyclopropyl-3-(2,6-dichlorophenyl)isoxazol-4-yl)methoxy)-6-azaspiro[3.4]octan-6-yl)benzo[d]thiazole-6-carboxylic Acid] is lower in EC50: 100 to 1000 nM for the first, under 100 nM for the second.

First: O=C(O)c1ccc2nc(N3CC4CCC(C3)C4OCc3c(-c4c(Cl)cccc4Cl)noc3C3CC3)sc2c1 (centres unmarked) [Example 6, 2-(8-((5-cyclopropyl-3-(2,6-dichlorophenyl)isoxazol-4-yl)methoxy)-3-azabicyclo[3.2.1]octan-3-yl)benzo[d]thiazole-6-carboxylic Acid]
Second: O=C(O)c1ccc2nc(N3CC4CC(OCc5c(-c6c(Cl)cccc6Cl)noc5C5CC5)CC4C3)sc2c1 (centres unmarked) [Example 26, 2-(5-((5-cyclopropyl-3-(2,6-dichlorophenyl)isoxazol-4-yl)methoxy)hexahydrocyclopenta[c]pyrrol-2(1H)-yl) benzo[d]thiazole-6-carboxylic Acid]
The EC50 of the first is higher: 100 to 1000 nM for the first, under 100 nM for the second. The second is the more potent here.

First: O=C(O)c1cc2ccc(N3CCC4(CC(OCc5c(-c6c(Cl)cccc6Cl)noc5C5CC5)C4)C3)cc2s1 (centres unmarked) [Example 30, 6-(2-((5-cyclopropyl-3-(2,6-dichlorophenyl)isoxazol-4-yl)methoxy)-6-azaspiro[3.4]octan-6-yl) benzothiophene-2-carboxylic Acid]
Second: O=C(O)c1cc2cc(N3CCC4(CC(OCc5c(-c6c(Cl)cccc6Cl)noc5C5CC5)C4)C3)ccc2o1 (centres unmarked) [Example 29]
The EC50 of the first is higher: 100 to 1000 nM for the first, under 100 nM for the second.

O=C(O)c1ccc2nc(N3CCC4(CC(OCc5c(-c6c(Cl)cccc6Cl)noc5C5CC5)C4)C3)ccc2c1 (centres unmarked) [Example 34, 2-(2-((5-cyclopropyl-3-(2,6-dichlorophenyl)isoxazol-4-yl)methoxy)-6-azaspiro[3.4]octan-6-yl)quinolin-6-carboxylic Acid] and O=C(O)c1ccc(N2CCC3(CC(OCc4c(-c5c(Cl)cccc5Cl)noc4C4CC4)C3)C2)cn1 (centres unmarked) [Example 45] fall in the same range of EC50: 100 to 1000 nM for the first, 100 to 1000 nM for the second.

O=C(O)c1ccc2nc(N3CCC4(CC(OCc5c(-c6c(F)cccc6F)noc5C5CC5)C4)C3)sc2c1 (centres unmarked) [Example 38] and O=C(O)c1ccc2nc(N3CCC4(CC(OCc5c(-c6ccccc6C(F)(F)F)noc5C5CC5)C4)C3)sc2c1 (centres unmarked) [Example 41, 2-(2-((5-cyclopropyl-3-(2-trifluoromethylphenyl)isoxazol-4-yl)methoxy)-6-azaspiro[3.4]octan-6-yl) benzo[d]thiazole-6-carboxylic Acid] fall in the same range of EC50: 100 to 1000 nM for the first, 100 to 1000 nM for the second.

First: Cn1c(C(=O)O)cc2cc(N3CCC4(CC(OCc5c(-c6c(Cl)cccc6Cl)noc5C5CC5)C4)C3)ccc21 (centres unmarked) [Example 32, 5-(2-((5-cyclopropyl-3-(2,6-dichlorophenyl)isoxazol-4-yl)methoxy)-6-azaspiro[3.4]octan-6-yl)-1-methyl-1H-indole-2-carboxylic Acid]
Second: O=C(O)c1ccc2nc(N3CCc4cc(OCc5c(-c6ccccc6C(F)(F)F)noc5C5CC5)ccc4C3)sc2c1 [Example 43, 2-(6-((5-cyclopropyl-3-(2-trifluoromethylphenyl)isoxazol-4-yl)methoxy)-3,4-dihydroisoquinolin-2(1H)-yl) benzo[d]thiazole-6-carboxylic Acid]
The EC50 of the first is higher: 100 to 1000 nM for the first, under 100 nM for the second. The second is the more potent here.
